This is an account of results in PubChem BioAssay (NCI).

Where “and” joins values, the source holds several entries; their conditions need not be identical. Identical values can stand only once.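 Where inhibition never reached the appropriate level, the endpoint shown equals the highest concentration tested. Otherwise, values were interpolated linearly from a five-concentration, 48-hour dose response in 96-well plates. GI50 marks 50% less growth. TGI: total growth inhibition.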 Bounds are passed on as bounds.

Assay in all cases: growth of human tumour cells (NCI), 48 h
For assay [1], the system named is OVCAR-8 ovarian.
Assay [2] deals with A549 NSCLC.
For assay [3], the system named is HCC-2998 colon.
The test system of assay [4] is SW-620 colon.
Assay [5] relates to HS 578T breast.
Assay [6] concerns HOP-92 NSCLC.
Assay [7] concerns OVCAR-3 ovarian.
Assay [8] relates to HCT-15 colon.
Assay [9] relates to UO-31 renal.
For assay [10], the system named is 786-0 renal.

Take `CCN(CC)c1ccc(C(=N)c2ccc(N(C)C)cc2)cc1`: the GI50 is 1.94 µM in assay [1]; 1.62 µM in [2]; 1.85 µM in [3]; 0.174 µM in [4]; 0.19 µM in assay [5]; 1.05 µM in assay [6]. Moreover, the GI50 in [7] is 0.156 µM; in assay [8], 0.17 µM; in [9], 1.45 µM; in assay [10], 1.71 µM. For the same compound, the TGI in assay [1] worked out at 6.51 µM; in assay [2], 11.4 µM; in assay [3], 5.69 µM; in assay [4] it was 5.63 µM; in assay [5], 2.67 µM; in [6], 4.22 µM. Further, the TGI in assay [7] is 4.07 µM; in assay [8] it was 7.93 µM; in [9], 7.73 µM; in assay [10], 4.45 µM.

Consider `CN(C(=O)c1ccncc1)c1ccccc1`, for which the TGI in [1], in assay [2], in assay [3], in assay [4], in assay [5] and in assay [6] was over 100 µM in each case. For the same compound, the TGI in assay [7], in assay [8], in [9] and in assay [10] was over 100 µM each time.

On to `CSC1(SC2=NCCN2)SC2(NCCN2)S1`, for which the TGI in assay [1] is 43 µM; in assay [2], 40.1 µM; in [3], 29.8 µM; in assay [4], 51.6 µM; in assay [5], 69.1 µM; in [6] it was 28.4 µM. Also, the TGI came to 30.6 µM in [7], 41.2 µM in [8], 32.2 µM in assay [9] and 14.2 µM in [10].

In the case of `OCC1OC(n2cnc3c(=S)nc[nH]c32)C(O)C1O` (centres undefined), the GI50 in assay [1] is 6.36 µM; in [2], 42.5 µM; in [3], 2.46 µM; in assay [4] it was 7.29 µM; in assay [5], 12.8 µM; in [6], 0.698 µM. The GI50 in assay [8] was 6.62 µM; in assay [10], 2.71 µM. The TGI in assay [1] is over 2500 µM; in assay [2], over 2500 µM; in assay [3] it was over 2500 µM; in assay [4], over 2500 µM; in [5], over 2500 µM; in [6], over 1780 µM. Moreover, the TGI in assay [7], in assay [8], in assay [9] and in [10] was over 2500 µM each time.

For the compound `S=C(Nc1cc(Cl)c(Cl)cc1Cl)SCc1ccccc1`, the TGI in [1] is 51.5 µM; in [2], over 100 µM; in [4], over 100 µM; in assay [5], over 100 µM; in [6], 75.8 µM; in assay [7], 49.3 µM. Moreover, the TGI was 32.6 µM in assay [8], over 100 µM in assay [9] and over 100 µM in assay [10].

Turning to `COc1ccc(-c2nn(-c3cccc(Cl)c3)cc2-c2cc(-c3ccccc3)nc(N)n2)cc1`, the GI50 in assay [1] is 1.9 µM; in [2] it was 2.7 µM; in assay [3], 2.25 µM; in assay [5] it was 3.03 µM; in assay [6], 1.06 µM; in assay [7], 4.53 µM. The GI50 was 3.6 µM in assay [8], 10 µM in assay [9] and 4.94 µM in assay [10]. The TGI in [1] came out at 3.78 µM; in assay [2] it was 13.7 µM; in assay [3] it was 4.53 µM; in [5], 18.4 µM; in [6] it was 4.77 µM; in assay [7] it was 15.3 µM. Also, the TGI stood at 16.1 µM in [8], 26.5 µM in assay [9] and 26.4 µM in [10].

In the case of `c1ccc(CSc2nnc3c4ccccc4c4ccccc4c3n2)cc1`, the TGI in assay [1] is over 100 µM; in assay [2], over 100 µM; in [3], over 100 µM; in [4], over 100 µM; in assay [5], over 100 µM; in assay [6] it was 59.7 µM. Further, the TGI was over 70.9 µM in assay [7], over 100 µM in assay [8], over 100 µM in [9] and over 92.5 µM in assay [10].

`Clc1nc(Cl)c(-c2ccccc2)c(Cl)n1`: the TGI is 10.6 µM in assay [1]; 36.1 µM in assay [2]; 5.32 µM in [3]; 5.34 µM in assay [4]; over 100 µM in [5]; 11.4 µM in [6]. Also, the TGI amounted to 7.71 µM in assay [7], 5.01 µM in assay [8], 9.08 µM in [9] and 6.55 µM in [10].

In the case of `CN(C)c1ccc(C(=C2C=CC(=[N+](C)C)C=C2)c2ccc(N(C)C)cc2)cc1`, the TGI in assay [2] was 1.2 µM and 2.48 µM; in assay [3] it was 1.17 µM and 0.934 µM; in [4] it was 1.23 µM; in [5] it was 2.82 µM; in [6], 0.461 µM; in [8] it was 1.35 µM and 1.26 µM. For the same compound, the TGI was 1.23 µM and 1.01 µM in assay [9]; 0.709 µM and 1.17 µM in assay [10]. The GI50 was 0.194 µM in assay [3]; 0.0693 µM in [4]; 0.0875 µM in assay [5]; 0.145 µM in assay [6]; 0.284 µM in assay [9]; 0.187 µM in assay [10].

For the compound `Cc1c(Cl)cccc1NC1=C(Cl)C(=O)N(Cc2ccccc2)C1=O`, the GI50 in assay [1] is 9.23 µM; in assay [2], 12 µM; in assay [3], 3.12 µM; in assay [5], 10.9 µM; in [6], 1.56 µM; in assay [7], 1.47 µM. The GI50 was 4.37 µM in [8], 6.96 µM in [9] and 1.9 µM in assay [10]. In addition, the TGI in assay [1] is 23.8 µM; in assay [2] it was 29.6 µM; in [3], 13.6 µM; in [5] it was 24.8 µM; in assay [6] it was 14.9 µM; in assay [7], 15.2 µM. In addition, the figures for the TGI in assay [8], in assay [9] and in assay [10] were 18 µM, 24.4 µM and 11 µM, respectively.

Take `Nc1cc(N)c2nc(-c3ccccc3)c(NCc3ccc(F)cc3)nc2c1`: the GI50 in assay [1] is 2.66 µM; in [2] it was 17.6 µM; in assay [4] it was 2.21 µM; in assay [5] it was 4.86 µM; in assay [6] it was 3.32 µM; in assay [7] it was 2.39 µM. For the same compound, the GI50 is 3.34 µM in assay [8], 3.81 µM in assay [9] and 23.7 µM in assay [10]. For the same compound, the TGI in [1] is 6.07 µM; in assay [2] it was 34.9 µM; in assay [4], 9.52 µM; in assay [5], over 100 µM; in assay [6], 6.91 µM; in assay [7] it was 6.42 µM. The TGI in assay [8] is 19.1 µM; in assay [9], over 100 µM; in assay [10], 62.2 µM.

As to `CC(C)N1C(NNC(=O)c2cnccn2)=NS(=O)(=O)c2ccccc21`, the GI50 in assay [1], in [2], in assay [3], in assay [4], in assay [5] and in [7] was over 100 µM each time. For the same compound, the GI50 in [8], in assay [9] and in assay [10] was over 100 µM each time. Further, the TGI in assay [1], in assay [2], in assay [3], in assay [4], in assay [5] and in assay [7] was over 100 µM in each case. Also, the TGI in assay [8], in assay [9] and in assay [10] was over 100 µM each time.

As to `CCN1C(=O)N(CC)C2C1NN=c1s/c(=C\c3cc4ccccc4[nH]3)c(=O)n12` (centres undefined), the GI50 is under 0.0191 µM in assay [1]; 0.0433 µM in assay [2]; 0.0382 µM in assay [3]; 0.0277 µM in assay [4]; under 0.0203 µM in assay [5]; 0.0681 µM in assay [6]. The GI50 in [8] was 0.0324 µM; in assay [9], 0.0523 µM; in assay [10], 0.0387 µM. In addition, the TGI in assay [1] was 31.3 µM; in assay [2], over 100 µM; in assay [3], over 100 µM; in [4], over 100 µM; in assay [5], 9.1 µM; in assay [6], 6.28 µM. The TGI is over 100 µM in [8], 10.4 µM in [9] and 22.3 µM in assay [10].

For the compound `CCCCCCCOc1c(OC)cc(C2CC(=O)Nc3c2c(C)nn3-c2nc3ccccc3[nH]2)cc1OC` (centres undefined), the GI50 is 4.28 µM in assay [1]; 4.18 µM in assay [2]; 74.1 µM in assay [3]; 2.11 µM in assay [4]; 1.35 µM in assay [5]; 2.34 µM in [6]. For the same compound, the figures for the GI50 in assay [8], in [9] and in [10] were 3.12 µM, 1.63 µM and 3.61 µM, respectively. Moreover, the TGI in assay [1] was over 100 µM; in [2], over 100 µM; in assay [3], over 100 µM; in assay [4], 5.18 µM; in assay [5] it was 4.43 µM; in assay [6], 7.68 µM. In addition, the results for the TGI in assay [8], in [9] and in [10] were over 100 µM, 4.82 µM and 21.8 µM, respectively.
